# Experimental data reported in patent US20100234377A1 (priority 2007, published 2010).
# Molecular target: T1, human Prostaglandin D Synthase (GST2) (Homo sapiens, UniProt O60760)
# T1 construct: the open reading frame of human Prostaglandin D Synthase was amplified from cDNA; made in house; host or cells: E. coli TOP10F'
# Experiment: Homogeneous biochemical assay of human Prostaglandin D Synthase (GST2) based on its glutathion-S-transferase activity (GSH conjugation to monochlorobimane, fluorescence)
# Details: not given
# Summary of the method: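 N-His-tagged human PGD synthase from E. coli, assayed via its GST activity: GSH conjugation to monochlorobimane in 50 mM MES/KOH pH 6.1, 0.7 mM GSH, 2 mM MgCl2. Compounds at final picomolar to triple-digit micromolar concentrations.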
# T1 sequence (O60760 whole entry): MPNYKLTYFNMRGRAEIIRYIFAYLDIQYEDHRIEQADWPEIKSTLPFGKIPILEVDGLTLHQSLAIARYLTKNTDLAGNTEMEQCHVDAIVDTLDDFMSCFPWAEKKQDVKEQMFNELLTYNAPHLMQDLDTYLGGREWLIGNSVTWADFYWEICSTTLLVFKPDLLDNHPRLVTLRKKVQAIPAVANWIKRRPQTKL
row,SMILES,IC50 [nM]
1,"CCN(CC)C(=O)c1ccc(NC(=O)N2CCN(C(=O)c3cccc(F)c3)CC2)cc1 [Compound 102, 4-(3-Fluoro-benzoyl)-piperazine-1-carboxylic acid (4-diethylcarbamoyl-phenyl)-amide]",101 to 1000

# Same assay, conditions: given beside the compound name in Examples 1 to 167; read-out: Potency Range (GST2 IC50)
row,IC50 [nM],SMILES
1,11 to 100,"O=C(Nc1cccc(Br)c1)N1CCN(C(=O)c2cccc(F)c2)CC1 [Compound 32, 4-(3-Fluoro-benzoyl)-piperazine-1-carboxylic acid (3-bromo-phenyl)-amide]"
2,101 to 1000,"O=C(Nc1cccc(Nc2ccccc2)c1)N1CCN(C(=O)c2cccc(F)c2)CC1 [Compound 166, 4-(3-Fluoro-benzoyl)-piperazine-1-carboxylic acid (3-phenylamino-phenyl)-amide]"
3,101 to 1000,O=C(Nc1ccc(-n2cncn2)c(F)c1)N1CCN(C(=O)c2cccc(F)c2)CC1 [Compound 145]
4,101 to 1000,"O=C(Nc1ccc([N+](=O)[O-])c(F)c1)N1CCN(C(=O)c2cccc(F)c2)CC1 [Compound 134, 4-(3-Fluoro-benzoyl)-piperazine-1-carboxylic acid (3-fluoro-4-nitro-phenyl)-amide]"
5,11 to 100,"O=C(Nc1ccc(-c2cc[nH]n2)cc1)N1CCN(C(=O)c2cccc(F)c2)CC1 [Compound 89, 4-(3-Fluoro-benzoyl)-piperazine-1-carboxylic acid [4-(1H-pyrazol-3-yl)-phenyl]-amide]"
6,101 to 1000,"COC(=O)c1ccc(NC(=O)N2CCN(C(=O)c3cccc(F)c3)CC2)cc1F [Compound 95, 2-Fluoro-4-{[4-(3-fluoro-benzoyl)-piperazine-1-carbonyl]-amino}-benzoic acid methyl ester]"
7,101 to 1000,O=C(Nc1ccc(-n2cccn2)c(F)c1)N1CCN(C(=O)c2cccc(F)c2)CC1 [Compound 143]
8,11 to 100,"N#Cc1cccc(NC(=O)N2CCN(C(=O)c3cccc(F)c3)CC2)c1 [Compound 35, 4-(3-Fluoro-benzoyl)-piperazine-1-carboxylic acid (3-cyano-phenyl)-amide]"
9,101 to 1000,"O=C(Nc1cccc(NS(=O)(=O)c2ccc(F)cc2)c1)N1CCN(C(=O)c2cccc(F)c2)CC1 [Compound 130, 4-(3-Fluoro-benzoyl)-piperazine-1-carboxylic acid [3-(4-fluoro-benzenesulfonylamino)-phenyl]-amide]"
10,11 to 100,"O=C(Nc1ccc(Br)c(-c2ccncc2)c1)N1CCN(C(=O)c2cccc(F)c2)CC1 [Compound 43, 4-(3-Fluoro-benzoyl)-piperazine-1-carboxylic acid (4-bromo-3-pyridin-4-yl-phenyl)-amide]"
11,101 to 1000,"Cc1nc(-c2cccc(NC(=O)N3CCN(C(=O)c4cccc(F)c4)CC3)c2)cs1 [Compound 77, 4-(3-Fluoro-benzoyl)-piperazine-1-carboxylic acid [3-(2-methyl-thiazol-4-yl)-phenyl]-amide]"
12,101 to 1000,"COC(=O)c1cc(NC(=O)N2CCN(C(=O)c3cccc(F)c3)CC2)ccc1F [Compound 94, 2-Fluoro-5-{[4-(3-fluoro-benzoyl)-piperazine-1-carbonyl]-amino}-benzoic acid methyl ester]"
13,11 to 100,"CS(=O)(=O)N(c1ccc(NC(=O)N2CCN(C(=O)c3cccc(F)c3)CC2)cc1)S(C)(=O)=O [Compound 129, N-{4-[bis(methylsulfonyl)amino]phenyl}-4-(3-fluorobenzoyl)piperazine-1-carboxamide]"
14,101 to 1000,"O=C(O)c1ccc(NC(=O)N2CCN(C(=O)c3cccc(F)c3)CC2)cc1F [Compound 96, 2-Fluoro-4-{[4-(3-fluoro-benzoyl)-piperazine-1-carbonyl]-amino}-benzoic acid]"
15,101 to 1000,"NC(=O)c1cccc(C(=O)N2CCN(C(=O)Nc3ccc(F)cc3)CC2)c1 [Compound 157, 4-(3-Carbamoyl-benzoyl)-piperazine-1-carboxylic acid (4-fluoro-phenyl)-amide]"
16,101 to 1000,O=C(Nc1ccc(-n2ccnc2)c(F)c1)N1CCN(C(=O)c2cccc(F)c2)CC1 [Compound 144]
17,101 to 1000,"O=C(Nc1cccc(NS(=O)(=O)C2CC2)c1)N1CCN(C(=O)c2cccc(F)c2)CC1 [Compound 131, 4-(3-Fluoro-benzoyl)-piperazine-1-carboxylic acid (3-cyclopropanesulfonylamino-phenyl)-amide]"
18,101 to 1000,"O=C(Nc1cccc(-c2ccncc2)c1)N1CCN(C(=O)c2cccc(F)c2)CC1 [Compound 86, 4-(3-Fluoro-benzoyl)-piperazine-1-carboxylic acid (3-pyridin-4-yl-phenyl)-amide]"
19,101 to 1000,"Nc1cccc(NC(=O)N2CCN(C(=O)c3cccc(F)c3)CC2)c1 [Compound 106, 4-(3-Fluoro-benzoyl)-piperazine-1-carboxylic acid (3-amino-phenyl)-amide]"

# Continued, molecule first:
row,SMILES,IC50 [nM]
1,"CC(C)(C)c1ccc(NC(=S)N2CCN(C(=O)c3ccccc3)CC2)cc1 [Compound 1, 4-Benzoyl-piperazine-1-carbothioic acid (4-tert-butyl-phenyl)-amide]",1 to 10
2,"CN(C)c1ccc(NC(=S)N2CCN(C(=O)c3ccccc3)CC2)cc1 [Compound 2, 4-Benzoyl-piperazine-1-carbothioic acid (4-dimethylamino-phenyl)-amide]",1 to 10
3,"CC(C)(C)OC(=O)N1CCN(c2ccc(NC(=O)N3CCN(C(=O)c4cccc(F)c4)CC3)cc2F)CC1 [Compound 46, 4-(2-Fluoro-4-{[4-(3-fluoro-benzoyl)-piperazine-1-carbonyl]-amino}-phenyl)-piperazine-1-carboxylic acid tert-butyl ester]",11 to 100
4,"O=C(Nc1ccc(NC(=O)N2CCN(C(=O)c3cccc(F)c3)CC2)cc1)c1ccc(F)nc1 [Compound 117, 4-(3-Fluoro-benzoyl)-piperazine-1-carboxylic acid {4-[(6-fluoro-pyridine-3-carbonyl)-amino]-phenyl}-amide]",101 to 1000
5,"O=C(Nc1ccc(C(F)(F)F)cc1)N1CCN(C(=O)c2cc(F)ccc2F)CC1 [Compound 148, 4-(2,5-Difluoro-benzoyl)-piperazine-1-carboxylic acid (4-trifluoromethyl-phenyl)-amide]",101 to 1000
6,"O=C(Nc1nc2ccc(C(=O)N3CCOCC3)cc2s1)N1CCN(C(=O)c2cccc(F)c2)CC1 [Compound 139, 4-(3-Fluoro-benzoyl)-piperazine-1-carboxylic acid [6-(morpholine-4-carbonyl)-benzothiazol-2-yl]-amide]",11 to 100
7,"O=C(c1ccccc1)N1CCN(C(=S)Nc2cccc3ccccc23)CC1 [Compound 5, 4-Benzoyl-piperazine-1-carbothioic acid naphthalen-1-ylamide]",11 to 100
8,"Nc1ccc(NC(=O)N2CCN(C(=O)c3cc(F)ccc3F)CC2)cc1 [Compound 113, 4-(2,5-Difluoro-benzoyl)-piperazine-1-carboxylic acid (4-amino-phenyl)-amide]",101 to 1000
9,"COC(=O)c1ccc(NC(=S)N2CCN(C(=O)c3ccc(F)cc3)CC2)cc1 [Compound 11, 4-{[4-(4-Fluoro-benzoyl)-piperazine-1-carbothioyl]-amino}-benzoic acid methyl ester]",101 to 1000
10,"Cc1ccc2nc(NC(=O)N3CCN(C(=O)c4cccc(F)c4)CC3)sc2c1 [Compound 80, 4-(3-Fluoro-benzoyl)-piperazine-1-carboxylic acid (6-methyl-benzothiazol-2-yl)-amide]",1 to 10
11,"O=C(Nc1nc2ccc(F)cc2s1)N1CCN(C(=O)c2cccc(F)c2)CC1 [Compound 66, 4-(3-Fluoro-benzoyl)-piperazine-1-carboxylic acid (6-fluoro-benzothiazol-2-yl)-amide]",11 to 100
12,"CS(=O)(=O)Nc1ccc(NC(=O)N2CCN(C(=O)c3cc(F)ccc3F)CC2)cc1 [Compound 133, 4-(2,5-Difluoro-benzoyl)-piperazine-1-carboxylic acid (4-methanesulfonylamino-phenyl)-amide]",101 to 1000
13,"Cc1ccccc1C(=O)N1CCN(C(=S)Nc2ccc(N3CCOCC3)nc2)CC1 [Compound 152, 4-(2-Methyl-benzoyl)-piperazine-1-carbothioic acid (6-morpholin-4-yl-pyridin-3-yl)-amide]",11 to 100
14,"O=C(Nc1nc2ccc(Br)cc2s1)N1CCN(C(=O)c2cccc(F)c2)CC1 [Compound 68, 4-(3-Fluoro-benzoyl)-piperazine-1-carboxylic acid (6-bromo-benzothiazol-2-yl)-amide]",1 to 10
15,"O=C(c1ccccc1)c1ccc(NC(=O)N2CCN(C(=O)c3cccc(F)c3)CC2)cc1 [Compound 42, 4-(3-Fluoro-benzoyl)-piperazine-1-carboxylic acid (4-benzoyl-phenyl)-amide]",11 to 100
16,"O=C(c1cccc(F)n1)N1CCN(C(=S)Nc2ccc(OC(F)(F)F)cc2)CC1 [Compound 19, 4-(6-Fluoro-pyridine-2-carbonyl)-piperazine-1-carbothioic acid (4-trifluoromethoxy-phenyl)-amide]",101 to 1000
17,"O=C(O)c1ccc2nc(NC(=O)N3CCN(C(=O)c4cccc(F)c4)CC3)sc2c1 [Compound 138, 2-{[4-(3-Fluoro-benzoyl)-piperazine-1-carbonyl]-amino}-benzothiazole-6-carboxylic acid]",11 to 100
18,"O=C(c1ccccc1)N1CCN(C(=S)Nc2ccc(F)cc2)CC1 [Compound 4, 4-Benzoyl-piperazine-1-carbothioic acid (4-fluoro-phenyl)-amide]",101 to 1000
19,"CC(C)(C)c1ccc(NC(=S)N2CCN(C(=O)c3ccc(F)cc3)CC2)cc1 [Compound 8, 4-(4-Fluoro-benzoyl)-piperazine-1-carbothioic acid (4-tert-butyl-phenyl)-amide]",11 to 100
20,"O=C(Nc1nc(-c2cccnc2)cs1)N1CCN(C(=O)c2cccc(F)c2)CC1 [Compound 74, 4-(3-Fluoro-benzoyl)-piperazine-1-carboxylic acid (4-pyridin-3-yl-thiazol-2-yl)-amide]",11 to 100
